This is an account of results in US20070265288A1 (priority 2004, published 2007).

Read-outs that look alike come from different tables or passages of the source.

The conditions of data set [1]: alpha form obtained by process of WO 99/03854; cited from earlier work.
Data set [2] in a line: Hygroscopicity of the crystal form according to the invention. The format is physicochemical.
Data set [3] in a line: Forced degradation (stress) study of imatinib mesylate alpha form. Format: physicochemical.
Setting [4] is: 60° C. for 48 hours, listed as RD/IMT-4/31.
[5] abbreviates: 60° C. for 48 hours, listed as RD/IMT-4/34.
[6] abbreviates: 105° C. for 12 hours, listed as RD/IMT-4/31.
[7] abbreviates: 105° C. for 12 hours, listed as RD/IMT-4/34.
Where [8] appears, read: As such (i.e. no stress condition).
Setting [9] is: As such (i.e. no stress condition), listed as RD/IMT-4/31.
Where [10] appears, read: As such (i.e. no stress condition), listed as RD/IMT-4/34.
[11] abbreviates: UV −45° C. 75 RH for 12 hours, listed as RD/IMT-4/31.
The mark [12] stands for this setting: UV −45° C. 75 RH for 12 hours, listed as RD/IMT-4/34.

For the compound `CS(=O)(=O)O.Cc1ccc(NC(=O)c2ccc(CN3CCN(C)CC3)cc2)cc1Nc1nccc(-c2cccnc2)n1` [alpha-crystalline form], in data set [1], the hygroscopicity entry was “highly hygroscopic” and the stability result is “not stable”.
Turning to `CS(=O)(=O)O.Cc1ccc(NC(=O)c2ccc(CN3CCN(C)CC3)cc2)cc1Nc1nccc(-c2cccnc2)n1` [imatinib mesylate], the “HPLC single maximum impurity content” value runs as follows: (Initial) 0.23 wt %; (after 6 months) 0.11 wt %; (after 12 months) 0.15 wt %. For the same compound, the “HPLC total impurity content” value (Initial) stood at 0.50 wt %, the “HPLC total impurity content” value (after 6 months) is listed as 0.33 wt % and the “HPLC total impurity content” value (after 12 months) is reported as 0.41 wt %. The Water content reads like this: (Initial) 0.39 wt %; (after 6 months) 0.61 wt %; (after 12 months) 0.58 wt %. For the setting “storage at ambient temperature”, the stability on storage result is “stable chemically and polymorphically”. The hygroscopicity entry in data set [2] is recorded as “non-hygroscopic”. In addition, the DSC entry in data set [3] (60° C. for 48 hours), in data set [3] (105° C. for 12 hours), in data set [3] (setting [8]) and in data set [3] (UV −45° C. 75 RH for 12 hours) was “Complies” in each case. The XRPD entry in data set [3] (60° C. for 48 hours), in data set [3] (105° C. for 12 hours), in data set [3] (setting [8]) and in data set [3] (UV −45° C. 75 RH for 12 hours) was “Complies” each time. For the same compound, the DESCRIPTION entry is listed as “Pale yellow” in data set [3] (setting [4]); “Cream coloured” in data set [3] (setting [5]); “Pale yellow” in data set [3] (setting [6]); “Cream coloured” in data set [3] (setting [7]); “Pale yellow” in data set [3] (setting [9]); “Cream coloured” in data set [3] (setting [10]). Moreover, the DESCRIPTION result in data set [3] (setting [11]) is “Pale yellow”; in data set [3] (setting [12]) it was “Cream coloured”. The Purity in data set [3] (setting [4]) was 99.44%; in data set [3] (setting [5]) it was 99.17%; in data set [3] (setting [6]), 99.49%; in data set [3] (setting [7]), 99.18%; in data set [3] (setting [9]), 99.45%; in data set [3] (setting [10]), 99.26%. Besides, the Purity in data set [3] (setting [11]) worked out at 99.38%; in data set [3] (setting [12]) it was 99.18%. The “Single Max. impurity” value in data set [3] (setting [4]) turned out to be 0.20%; in data set [3] (setting [5]), 0.30%; in data set [3] (setting [6]), 0.17%; in data set [3] (setting [7]), 0.32%; in data set [3] (setting [9]) it was 0.18%; in data set [3] (setting [10]) it was 0.33%. The results for the “Single Max. impurity” value in data set [3] (setting [11]) and in data set [3] (setting [12]) were 0.19% and 0.34%, respectively. In addition, the “polymorphic stability by DSC and XRPD evaluation” value in data set [3] (before and after stress study) was “polymorphically stable”. Besides, the “polymorphic identity under stress conditions” value in data set [3] (stress conditions such as milling or heating) is given as “retain the polymorphic identity”. The “level of impurities before and after stability study” value in data set [3] (stress: 60° C. 48 hours, 105° C. 12 hours, UV 45° C. at 75% RH 12 hours) is “no increase in the level of impurities”.
